Test results from US20120016011A1, “RNA Interference Mediated Inhibition of Connective Tissue Growth Factor (CTGF) Gene Expression Using Short Interfering Nucleic Acid (siNA)” (Merck Sharp & Dohme Corp., priority 2009, published 2012).
[invAb] = inverted abasic unit; d = 2'-deoxy (DNA); m = 2'-O-methyl; r = 2'-OH (RNA); f = 2'-fluoro

Legend:
CTGF mRNA [1] = assay: CTGF mRNA knockdown (Taqman RT-PCR) after siNA transfection of mouse NIH 3T3 cells; type: cell-based; conditions: mouse NIH3T3 cells, 10 nM siNA, 24 hrs, average of 3 experiments, vs non-targeting control
Experimental: NIH 3T3 (mouse; ATCC cat# CRL-1658): Cells were cultured at 37° C. in the presence of 5% CO2 and grown in Dulbecco's modified Eagle's medium (DMEM) with 4 mM L-glutamine adjusted to contain 1.5 g/L sodium bicarbonate and 4.5 g/L glucose and supplemented with fetal bovine serum at a final concentration of 10%, 100 μg/mL of streptomycin, and 100 U/mL penicillin.
(§1) Cells were plated in all wells of a tissue-culture treated, 96-well plate at a final count of 5000 cells/well in […], of the appropriate culture media. The cells were cultured for 24 hours after plating at 37° C. in the presence of 5% CO2.
(§2) After 24 hours, complexes containing siNA and RNAiMax were created as follows: A solution of RNAiMax diluted 33-fold in OPTI-MEM was prepared. In parallel, solutions of the siNAs for testing were prepared to a final concentration of 120 nM in OPTI-MEM. After incubation of RNAiMax/OPTI-MEM solution at room temperature for 5 min, an equal volume of the siNA solution and the RNAiMax solution were added together for each of the siNAs.
(§3) This solution was incubated at room temperature for 20 minutes. After incubation, 20 uL of the solution was added to each of the relevant wells. The final concentration of siNA in each well was 10 nM and the final volume of RNAiMax in each well was 0.3 ul.
(§4) The time of incubation with the RNAiMax-siNA complexes was 24 hours and there was no change in media between transfection and harvesting, unless otherwise indicated.
(§5) RNA was extracted from a 96-well plate using the TaqMan® Gene Expression Cells-to-CT™ Kit (Cat# 4399002) with a modified protocol. Briefly, a 60 uL (1 plate) or 110 uL (2 plates) of the Lysis Solution with DNase I was dispensed into each well of the Lysis Buffer Plate (twin.tec full skirt plate). The lysis buffer and stop plates were stored at 4° C. until the cells were washed.
(§6) The plate was spun at 1100 rpm for 5 minutes. The culture medium was aspirated and discarded from the wells of the culture plate. The lysis was performed automatically using a BioMek FX instrument and method. After the Biomek method was completed, the lysis plate was incubated for 2 min. at room temperature. The lysis plate can be stored for 2 hours at 4° C., or at −20° C. or −80° C. for two months.
(§7) Each well of the reverse transcription plate required 10 uL of 2× reverse transcriptase Buffer, 1 uL of 20× reverse transcription enzyme and 2 uL of nuclease-free water. The reverse transcription master mix was prepared by mixing 2× reverse transcription buffer, 20× reverse transcription enzyme mix, and nuclease-free water. 13 uL of the reverse transcription master mix was dispensed into each well of the reverse transcription plate (semi-skirted). A separate reverse transcription plate was prepared for each cell plate. The plate was loaded onto a Biomek NX or Biomek FX Dual -96 and the Biomek method was run. The program is programmed to automatically added 7 uL of lysate from the cell lysis procedure described above into each well of the reverse transcription plate. The plate is sealed and spun on a centrifuge (1000 rpm for 30 seconds) to settle the contents to the bottom of the reverse transcription plate. The plate is placed in a thermocycler at 37° C. for 60 min, 95° C. for 5 min, and 4° C. until the plate is removed from the thermocycler. Upon removal, if not used immediately, the plate was frozen at −20° C.
(§8) A series of probes and primers were used to detect the various mRNA transcripts of the genes of β-Actin (human cell line only), and of CTGF and GAPDH in mouse and human cell lines. All Taqman probes and primers for the experiments here-in described were supplied as pre-validated sets by Applied Biosystems, Inc. (see Table 3).
The assays were performed on an ABI 7900 instrument, according to the manufacturer's instructions. A TaqMan Gene Expression Master Mix (provided in the Cells-to-CT™, Applied Biosystems, Cat # 4399002) was used. […]

CTGF mRNA [2] = assay: CTGF mRNA knockdown (Taqman RT-PCR) after siNA transfection of human NHLF cells; type: cell-based; conditions: 10 nM siNA, 24 hrs, average of 3 experiments, vs non-targeting control
Experimental: NHLF (Normal human lung fibroblasts; Lonza cat# CC-2512): Cells were cultured at 37° C. in the presence of 5% CO2 and grown in Fibroblast Basal Medium (Lonza cat# CC-3132) supplemented with 2% FBS and growth factors (provided with the kit) and 100 μg/mL of streptomycin and 100 U/mL penicillin.
as §1, §2, §3, §4, §5, §6, §7, §8
The assays were performed on an ABI 7900 instrument, according to the manufacturer's instructions. A TaqMan Gene Expression Master Mix (provided in the Cells-to-CT™, Applied Biosystems, Cat # 4399002) was used. The PCR reactions were carried out at 50° C. for 2 min, 95° C. for 20 min followed by 40 cycles at 95° C. for 15 secs and 60° C. for 1 min. […]

Substance	% KD Mouse (CTGF mRNA [1]) [%]	% KD Human (CTGF mRNA [2]) [%]
48039-DC: siNA duplex; sense SEQ ID NO: 43 B ccuAucAAGuuuGAGcuuu TTB; antisense SEQ ID NO: 44 AAAGcucAAAcuuGAuAGGUU	21±7	81 ± 3
48040-DC: siNA duplex; sense SEQ ID NO: 45 B GAGuGGAGcGccuGuuccA TTB; antisense SEQ ID NO: 46 UGGAAcAGGcGcuccAcucUU (sense GAGUGGAGCGCCUGUUCCATT; antisense UGGAACAGGCGCUCCACUCUU; sense: DNA at AGT, 2'-fluoro at CU, [invAb] at 5' end, 3' end, backbone not given here; antisense: sugars from the 5' end rrrmmfmmmfmffffmfffmm, backbone not given here)	−1 ± 3	13 ± 18
48041-DC: siNA duplex; sense SEQ ID NO: 47 B GAuucccAcccAAuucAAA TTB; antisense SEQ ID NO: 48 UUUGAAuuGGGuGGGAAucUU (sense GAUUCCCACCCAAUUCAAATT; antisense UUUGAAUUGGGUGGGAAUCUU; sense: DNA at AGT, 2'-fluoro at CU, [invAb] at 5' end, 3' end, backbone not given here; antisense: sugars from the 5' end rrrmmmffmmmfmmmmmffmm, backbone not given here)	13 ± 3	73±4
48043-DC: siNA duplex; sense SEQ ID NO: 51 B GAcAuAccGAGcuAAAuuc TTB; antisense SEQ ID NO: 52 GAAuuuAGcucGGuAuGucUU (sense GACAUACCGAGCUAAAUUCTT; antisense GAAUUUAGCUCGGUAUGUCUU; sense: DNA at AGT, 2'-fluoro at CU, [invAb] at 5' end, 3' end, backbone not given here; antisense: sugars from the 5' end rrrfffmmfffmmfmfmffmm, backbone not given here)	48 ± 0	57 ± 7
48044-DC: siNA duplex; sense SEQ ID NO: 53 B GuGuGcAccGccAAAGAuG TTB; antisense SEQ ID NO: 54 CAUcuuuGGcGGuGcAcAcUU (sense GUGUGCACCGCCAAAGAUGTT; antisense CAUCUUUGGCGGUGCACACUU; sense: DNA at AGT, 2'-fluoro at CU, [invAb] at 5' end, 3' end, backbone not given here; antisense: sugars from the 5' end rrrffffmmfmmfmfmfmfmm, backbone not given here)	−18 ± 5	−16 ± 8
48045-DC: siNA duplex; sense SEQ ID NO: 55 B cuGAcGGcGAGGucAuGAA TTB; antisense SEQ ID NO: 56 UUCAuGAccucGccGucAGUU (sense CUGACGGCGAGGUCAUGAATT; antisense UUCAUGACCUCGCCGUCAGUU; sense: DNA at AGT, 2'-fluoro at CU, [invAb] at 5' end, 3' end, backbone not given here; antisense: sugars from the 5' end rrrmfmmffffmffmffmmmm, backbone not given here)	19 ± 4	18 ± 4
48049-DC: siNA duplex; sense SEQ ID NO: 63 B cGuGuGcAccGccAAAGAu TTB; antisense SEQ ID NO: 64 AUCuuuGGcGGuGcAcAcGUU (sense CGUGUGCACCGCCAAAGAUTT; antisense AUCUUUGGCGGUGCACACGUU; sense: DNA at AGT, 2'-fluoro at CU, [invAb] at 5' end, 3' end, backbone not given here; antisense: sugars from the 5' end rrrfffmmfmmfmfmfmfmmm, backbone not given here)	−9 ± 6	27 ± 2
48050-DC: siNA duplex; sense SEQ ID NO: 65 B cuGccuGGuccAGAccAcA TTB; antisense SEQ ID NO: 66 UGUGGucuGGAccAGGcAGUU (sense CUGCCUGGUCCAGACCACATT; antisense UGUGGUCUGGACCAGGCAGUU; sense: DNA at AGT, 2'-fluoro at CU, [invAb] at 5' end, 3' end, backbone not given here; antisense: sugars from the 5' end rrrmmfffmmmffmmmfmmmm, backbone not given here)	−13 ± 5	3 ± 18
48051-DC: siNA duplex; sense SEQ ID NO: 67 B GGGuGuGUGAcGAGcccAA TTB; antisense SEQ ID NO: 68 UUGGGcucGucAcAcAcccUU (sense GGGUGUGUGACGAGCCCAATT; antisense UUGGGCUCGUCACACACCCUU; sense: sugars from the 5' end dddfdfddddfdddfffdddd, [invAb] at 5' end, 3' end, backbone not given here; antisense: sugars from the 5' end rrrmmfffmffmfmfmfffmm, backbone not given here)	14 ± 11	15 ± 10
48052-DC: siNA duplex; sense SEQ ID NO: 69 B GcGAGGucAuGAAGAAGAA TTB; antisense SEQ ID NO: 70 UUCuucuucAuGAccucGcUU (sense GCGAGGUCAUGAAGAAGAATT; antisense UUCUUCUUCAUGACCUCGCUU; sense: DNA at AGT, 2'-fluoro at CU, [invAb] at 5' end, 3' end, backbone not given here; antisense: sugars from the 5' end rrrffffffmfmmffffmfmm, backbone not given here)	41 ± 4	27 ± 16
48053-DC: siNA duplex; sense SEQ ID NO: 71 B cAGAGAGuGAGAGAcAuuA TTB; antisense SEQ ID NO: 72 UAAuGucucucAcucucuGUU (sense CAGAGAGUGAGAGACAUUATT; antisense UAAUGUCUCUCACUCUCUGUU; sense: DNA at AGT, 2'-fluoro at CU, [invAb] at 5' end, 3' end, backbone not given here; antisense: sugars from the 5' end rrrfmffffffmffffffmmm, backbone not given here)	26 ± 9	45 ± 7
48054-DC: siNA duplex; sense SEQ ID NO: 73 B GAcuuGAcAGuGGAAcuAc TTB; antisense SEQ ID NO: 74 GUAGuuccAcuGucAAGucUU (sense GACUUGACAGUGGAACUACTT; antisense GUAGUUCCACUGUCAAGUCUU; sense: DNA at AGT, 2'-fluoro at CU, [invAb] at 5' end, 3' end, backbone not given here; antisense: sugars from the 5' end rrrmffffmffmffmmmffmm, backbone not given here)	17 ± 3	70 ± 5
